From US9365522B2, “Pyrazole amide derivative” (AMGEN INC., priority 2015, dated 2016) come the findings set out here.

For the experiment, the target named is T1, ligand binding domain of human ROR gamma (Homo sapiens, UniProt P51449).
T1 construct: NM_001001523; expressed in transfected cells; host or cells: HEK293T
T1 sequence (P51449 247-497 isoform P51449-2): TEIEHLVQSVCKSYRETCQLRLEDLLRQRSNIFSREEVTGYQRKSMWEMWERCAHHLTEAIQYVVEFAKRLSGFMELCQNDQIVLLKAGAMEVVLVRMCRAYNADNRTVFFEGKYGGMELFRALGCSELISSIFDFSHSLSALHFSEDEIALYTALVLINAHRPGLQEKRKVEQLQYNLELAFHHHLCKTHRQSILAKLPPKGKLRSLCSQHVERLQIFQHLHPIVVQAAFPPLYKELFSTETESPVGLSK
The experiment can be described thus: ROR gamma reporter gene assay (GAL4-RORγ LBD luciferase, Dual-Glo). The experiment is classed as cell-based. As to conditions: HEK293T cells transfected with pM-ROR gamma, 8 concentrations 3.5 nM to 10.5 μM, 24 h incubation; read-out: result (pIC50, inhibition of RORγ transcriptional activity) (converted). Summed up:
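Inhibition of RORγ-driven transcription was measured in HEK293T cells expressing a GAL4 fusion of the human RORγ LBD (aa 247-497), with renilla luciferase as internal control. Cells in 10% charcoal-stripped serum received compound (3.5 nM–10.5 μM) for 24 h.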
Background: Reporter assays use an easily measured gene product as a stand-in for the process of interest.
With `C[C@]1(C(=O)O)CC[C@H](n2ncc(C(=O)N(CC(=O)c3c(Cl)cncc3Cl)CC3(C(F)(F)F)CC3)c2Cl)CC1` [Example 388, trans-4-(5-chloro-4-((2-(3,5-dichloropyridin-4-yl)-2-oxoethyl)-((1-(trifluoromethyl)cyclopropyl)methyl)carbamoyl)pyrazol-1-yl)-1-methylcyclohexane-1-carboxylic acid], the IC50 is 72400 pM.
As to `CC1(C)CCC(N(CC(=O)c2c(Cl)cccc2Cl)C(=O)c2cnn([C@H]3CC[C@](C)(C(=O)O)CC3)c2Cl)CC1` [Example 389, trans-4-(5-chloro-4-((2-(2,6-dichlorophenyl)-2-oxoethyl)-(4,4-dimethylcyclohexyl)carbamoyl)pyrazol-1-yl)-1-methylcyclohexane-1-carboxylic acid], the IC50 is 29500 pM.
The value for `CC1(C)[C@@H]2C[C@H](N(C[C@H](O)c3ncccc3Cl)C(=O)c3cnn([C@H]4CC[C@](C)(C(=O)O)CC4)c3C(F)(F)F)C[C@@H]21` [Example 390, trans-4-(4-((2-(3-chloropyridin-2-yl)-2-hydroxyethyl)((1R,3r,5S)-6,6-dimethylbicyclo[3.1.0]hexan-3-yl)carbamoyl)-5-(trifluoromethyl)-1H-pyrazol-1-yl)-1-methylcyclohexanecarboxylic acid] was 331000 pM.
The figure for `CC1(C)[C@@H]2C[C@H](N(C[C@@H](O)c3ncccc3Cl)C(=O)c3cnn([C@H]4CC[C@](C)(C(=O)O)CC4)c3C(F)(F)F)C[C@@H]21` [Example 391, trans-4-(4-((2-(3-chloropyridin-2-yl)-2-hydroxyethyl)((1R,3r,5S)-6,6-dimethylbicyclo[3.1.0]hexan-3-yl)carbamoyl)-5-(trifluoromethyl)-1H-pyrazol-1-yl)-1-methylcyclohexanecarboxylic acid] is 141000 pM; for `Cc1[nH]c2cccc(Cl)c2c1CCN(C(=O)c1cnn([C@H]2CC[C@](C)(C(=O)O)CC2)c1C(F)(F)F)[C@H]1C[C@@H]2[C@H](C1)C2(C)C` [Example 392, trans-4-(4-((2-(4-chloro-2-methyl-1H-indol-3-yl)ethyl)((1R,3r,5S)-6,6-dimethylbicyclo[3.1.0]hexan-3-yl)carbamoyl)-5-(trifluoromethyl)-1H-pyrazol-1-yl)-1-methylcyclohexanecarboxylic acid] it is 28800 pM; for `CC1(C)[C@@H]2C[C@H](N(C[C@@](C)(O)c3ccccc3Cl)C(=O)c3cnn([C@H]4CC[C@](C)(C(=O)O)CC4)c3C(F)(F)F)C[C@@H]21` [Example 393, trans-4-(4-((2-(2-chlorophenyl)-2-hydroxypropyl)((1R,3r,5S)-6,6-dimethylbicyclo[3.1.0]hexan-3-yl)carbamoyl)-5-(trifluoromethyl)-1H -pyrazol-1-yl)-1-methylcyclohexanecarboxylic acid] it is 4.57e+06 pM.
The value for `CCC(F)(CC)CN(CC(=O)c1c(Cl)cncc1Cl)C(=O)c1cnn([C@H]2CC[C@](C)(C(=O)O)CC2)c1C(F)(F)F` [Example 394, trans-4-(4-((2-(3,5-dichloropyridin-4-yl)-2-oxoethyl)-(2-ethyl-2-fluorobutyl)carbamoyl)-5-(trifluoromethyl)pyrazol-1-yl)-1-methylcyclohexane-1-carboxylic acid] was 20400 pM; that for `CCC(F)(CC)CN(CC(=O)c1c(Cl)cncc1Cl)C(=O)c1cnn([C@H]2CC[C@](C)(C(=O)O)CC2)c1Cl` [Example 395, trans-4-(5-chloro-4-((2-(3,5-dichloropyridin-4-yl)-2-oxoethyl)-(2-ethyl-2-fluorobutyl)carbamoyl)pyrazol-1-yl)-1-methylcyclohexane-1-carboxylic acid] was 91200 pM; that for `CC1(C)[C@@H]2C[C@H](N(C[C@H](O)c3sccc3Cl)C(=O)c3cnn([C@H]4CC[C@](C)(C(=O)O)CC4)c3C(F)(F)F)C[C@@H]21` [Example 396, trans-4-(4-((2-(3-chlorothiophen-2-yl)-2-hydroxyethyl)((1R,3r,5S)-6,6-dimethylbicyclo[3.1.0]hexan-3-yl)carbamoyl)-5-(trifluoromethyl)-1H-pyrazol-1-yl)-1-methylcyclohexanecarboxylic acid] was 891000 pM.
As for `CC1(C)[C@@H]2C[C@H](N(C[C@@H](O)c3sccc3Cl)C(=O)c3cnn([C@H]4CC[C@](C)(C(=O)O)CC4)c3C(F)(F)F)C[C@@H]21` [Example 397, trans-4-(4-((2-(3-chlorothiophen-2-yl)-2-hydroxyethyl)((1R,3r,5S)-6,6-dimethylbicyclo[3.1.0]hexan-3-yl)carbamoyl)-5-(trifluoromethyl)-1H-pyrazol-1-yl)-1-methylcyclohexanecarboxylic acid], the IC50 was 61700 pM.
For the compound `CC1(C)[C@@H]2C[C@H](N(CC(=O)c3ncccc3Cl)C(=O)c3cnn([C@H]4CC[C@](C)(C(=O)O)CC4)c3C(F)(F)F)C[C@@H]21` [Example 398, trans-4-(4-((2-(3-chloropyridin-2-yl)-2-oxoethyl)((1R,3r,5S}-6,6-dimethylbicyclo[3.1.0]hexan-3-yl)carbamoyl)-5-(trifluoromethyl)-1H -pyrazol-1-yl)-1-methylcyclohexanecarboxylic acid], the IC50 was 676000 pM.
The figure for `CC1(C)[C@@H]2C[C@H](N(CC(O)c3c(Cl)cccc3OC(F)F)C(=O)c3cnn([C@H]4CC[C@](C)(C(=O)O)CC4)c3C(F)(F)F)C[C@@H]21` (stereo partly drawn) [Example 399, trans-4-(4-((2-(2-chloro-6-(difluoromethoxy)phenyl)-2-hydroxyethyl)((1R,3r,5S)-6,6-dimethylbicyclo[3.1.0]hexan-3-yl)carbamoyl)-5-(trifluoromethyl)-1H-pyrazol-1-yl)-1-methylcyclohexanecarboxylic acid] is 87100 pM; for `CC1(C)[C@@H]2C[C@H](N(CC(=O)c3c(Cl)cccc3OC(F)F)C(=O)c3cnn([C@H]4CC[C@](C)(C(=O)O)CC4)c3C(F)(F)F)C[C@@H]21` [Example 400, trans-4-(4-((2-(2-chloro-6-(difluoromethoxy)phenyl)-2-oxyethyl)((1R,3r,5S)-6,6-dimethylbicyclo[3.1.0]hexan-3-yl)carbamoyl)-5-(trifluoromethyl)-1H-pyrazol-1-yl)-1-methylcyclohexanecarboxylic acid] it is 28800 pM; for `CC1(C)[C@@H]2C[C@H](N(CC(O)c3ccccn3)C(=O)c3cnn([C@H]4CC[C@](C)(C(=O)O)CC4)c3C(F)(F)F)C[C@@H]21` (stereo partly drawn) [Example 401] it is 2.82e+06 pM.
The value for `CC1(C)[C@@H]2C[C@H](N(CC(=O)c3c(Cl)cccc3Cl)C(=O)c3cnn([C@H]4CC[C@](C)(C(=O)O)CC4)c3C3(F)CC3)C[C@@H]21` [Example 404, trans-4-(4-((2-(2,6-dichlorophenyl)-2-oxoethyl)((1R,3r,5S)-6,6-dimethylbicyclo[3.1.0]hexan-3-yl)carbamoyl)-5-(1-fluorocyclopropyl)-1H-pyrazol-1-yl)-1-methylcyclohexanecarboxylic acid] was 22400 pM.
